# Results as given in patent US7071225B2, “Arylaminopropane analogues and their use for the treatment of glaucoma” (Alcon, Inc., priority 2001, dated 2006).
# Structures can show the parent of a compound that is named as a salt. Where two headings read alike, the source gives them in different places.
# How the values were obtained:
# 5-HT2 receptor [1] = biological target: T1, 5-HT2 receptor (Rattus norvegicus, UniProt P14842); experiment: 5-HT2 receptor binding assay ([125I]DOI competition, cerebral cortex homogenates); details: 5-point, read-out: Rat Cerebral Cortex 5-HT2 IC50 5-pt (DOI)
# T1 sequence (P14842 whole entry): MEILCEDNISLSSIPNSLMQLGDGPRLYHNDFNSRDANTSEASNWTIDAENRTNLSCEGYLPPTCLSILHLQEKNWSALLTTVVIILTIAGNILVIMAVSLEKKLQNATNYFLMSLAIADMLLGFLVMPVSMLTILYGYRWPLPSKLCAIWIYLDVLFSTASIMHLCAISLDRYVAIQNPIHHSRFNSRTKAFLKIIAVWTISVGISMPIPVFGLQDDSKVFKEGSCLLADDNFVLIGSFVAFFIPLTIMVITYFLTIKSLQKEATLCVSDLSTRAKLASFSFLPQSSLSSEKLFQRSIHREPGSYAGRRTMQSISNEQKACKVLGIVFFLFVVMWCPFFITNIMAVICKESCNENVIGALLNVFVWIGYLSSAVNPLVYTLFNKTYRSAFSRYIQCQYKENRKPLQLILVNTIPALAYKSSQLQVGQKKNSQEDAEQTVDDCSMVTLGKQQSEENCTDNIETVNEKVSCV
# Method: The assay mixture is incubated for 1 hour at 23° C. in polypropylene tubes and the assays terminated by rapid vacuum filtration over Whatman GF/B glass fiber filters previously soaked in 0.3% polyethyleneimine using ice-cold buffer. Test compounds (at different concentrations) are substituted for methiothepin. Filter-bound radioactivity is determined by scintillation spectrometry on a beta counter. The data are analyzed using a non-linear, iterative curve-fitting computer program [Trends Pharmacol. Sci., 16, 413 (1995)] to determine the compound affinity parameter.
# 5-HT2a = biological target: T2, 5-HT2a (Rattus norvegicus, UniProt P14842); experiment: 5-HT2 functional assay: [Ca2+]i mobilization (FLIPR) in A7r5 cells; type: cell-based; details: for Emax: read-out: FLIPR 5-HT2a % Emax A7r5 Ca + 2
# T2 construct: endogenous in cells; host or cells: A7r5 rat vascular smooth muscle cells
# T2 sequence (P14842 whole entry): as above
# Method: The receptor-mediated mobilization on intracellular calcium ([Ca^2+]i) was studied using the Fluorescence Imaging Plate Reader (FLIPR) instrument. Rat vascular smooth muscle cells, A7r5, were grown in a normal media of DMEM/10% FBS and 10 μg/mL gentamycin. Confluent cell monolayers were trypsinized, pelleted, and re-suspended in normal media. Cells were seeded in a 50 μL volume at a density of 20,000 cells/well in a black wall, 96-well tissue culture plate and grown for 2 days.
# On the day of the experiment, one vial of FLIPR Calcium Assay Kit dye was re-suspended in 50 mL of a FLIPR buffer consisting of Hank's Balanced Salt Solution (HBSS), 20 mM HEPES, and 2.5 mM probenecid, pH 7.4. Cells were loaded with the calcium-sensitive dye by addition of an equal volume ([…]) to each well of the 96-well plate and incubated with dye for 1 h at 23° C.
# Typically, test compounds were stored at 25 μM in 50% DMSO/50% Ethanol solvent. Compounds were diluted 1:50 in 20% DMSO/20% Ethanol. For “hit” screening, compounds were further diluted 1:10 in FLIPR buffer and tested at a final concentration of 10 μM. For dose-response experiments, compounds were diluted 1:50 in FLIPR buffer and serially diluted 1:10 to give a 5- or 8-point dose-response curve.
# The compound plate and cell plate were placed in the FLIPR instrument. At the beginning of an experimental run, a signal test was performed to check the basal fluorescence signal from the dye-loaded cells and the uniformity of the signal across the plate. The basal fluorescence was adjusted between 8000–12000 counts by modifying the exposure time, the camera F-stop, or the laser power. Instrument settings for a typical assay were the following: laser power 0.3–0.6 W, camera F-stop F/2, and exposure time 0.4 sec. An aliquot (25 μL) of the test compound was added to the existing 100 μL dye-loaded cells at a dispensing speed of 50 μL/sec. Fluorescence data were collected in real-time at 1.0 sec intervals for the first 60 secs and at 6.0 sec intervals for an additional 120 secs. Responses were measured as peak fluorescence intensity minus basal and where appropriate were expressed as a percentage of a maximum 5-HT-induced response.
# [2] = monkey; Wang et al. 1997/1998; attributed to α1A receptor activity; cited from earlier work
# 5-HT2 receptor [3] = biological target: T1, 5-HT2 receptor; experiment: 5-HT2 functional assay: phosphoinositide (PI) turnover in A7r5 cells; type: cell-based; set-up: [^3H]myo-inositol-labeled A7r5 rat vascular smooth muscle cells; endogenous in cells; host or cells: A7r5 rat vascular smooth muscle cells
# Method: The relative agonist activity of serotonergic compounds at the 5-HT2 receptor can be determined in vitro using the ability of the compounds to stimulate the production of [^3H]inositol phosphates in [^3H]myo-inositol-labeled A7r5 rat vascular smooth muscle cells by their ability to activate the enzyme phospholipase C. These cells are grown in culture plates, maintained in a humidified atmosphere of 5% CO2 and 95% air and fed semi-weekly with Dulbecco's modified Eagle medium (DMEM) containing 4.5 g/L glucose and supplemented with 2 mM glutamine, 10 μg/ml gentamicin, and 10% fetal bovine serum. For the purpose of conducting the phosphoinositide (PI) turnover experiments, the A7r5 cells are cultured in 24-well plates as previously [J. Pharmacol. Expt. Ther. 286, 411 (1998)]. Confluent cells are exposed for 24–30 hrs to 1.5 μCi [^3H]-myo-inositol (18.3 Ci/mmol) in 0.5 ml of serum-free medium. Cells are then rinsed once with DMEM/F-12 containing 10 mM LiCl prior to incubation with the test agent (or solvent as the control) in 1.0 mL of the same medium for 1 hr at 37° C., after which the medium is aspirated and 1 ml of cold 0.1 M formic acid added to stop the reaction. The chromatographic separation of [^3H]-inositol phosphates ([^3H]-IPs) on an AG-1-X8 column is performed as previously described [J. Pharmacol. Expt. Ther. 286, 411 (1998)] with sequential washes with H2O and 50 mM ammonium formate, followed by elution of the total [^3H]-IPs fraction with 1.2 M ammonium formate containing 0.1 M formic acid. The eluate (4 mL) is collected, mixed with 15 ml scintillation fluid, and the total [^3H]-IPs determined by scintillation counting on a beta-counter. Concentration-response data are analyzed by the sigmoidal fit function of the Origin Scientific Graphics software (Microcal Software, Northampton, Mass.) to determine agonist potency (EC50 value) and efficacy (Emax).
# [4] = rabbits; Osborne et al. 1996; cited from earlier work
# [5] = A7r5 cells, percentage of maximum 5-HT-induced response
# [6] = A7r5 cells, Ca2+ mobilization, read-out: FLIPR 5-HT2a EC50
compound,measurement,setting,value
"2-amino-1-(3,8-dimethoxy-naphthalen-2-yl)-propan-1-ol hydrochloride [Example 6]",IC50,5-HT2 receptor [1],4.92 nM
same,FLIPR 5-HT2a % Emax A7r5 Ca + 2,5-HT2a; [5],17.8%
COc1ccccc1N1CCN(CCCNc2c(C)c(=O)n(C)c(=O)n2C)CC1 [5-methylurapidil],effect on IOP,[2],lowers IOP
"COc1cc(CC(C)N)c(OC)c2ccccc12 (centres unmarked) [Example 1, 2-(1,4-Dimethoxy-naphthalen-2-yl)-1-methylethylamine hydrochloride]",EC50,5-HT2 receptor [3],238 nM
same,Emax,"5-HT2 receptor [3]; A7R5; read-out: Efficacy (Emax, %)",118%
same,EC50,5-HT2a,188 nM
same,Emax,5-HT2a; [5],46.5%
"COc1cc(C(O)C(C)N)c(OC)c2ccccc12 (centres unmarked) [Example 2, 2-Amino-1-(1,4-dimethoxy-naphthalen-2-yl)-propan-1-ol hydrochloride]",EC50,5-HT2 receptor [3],6810 nM
same,Emax,"5-HT2 receptor [3]; A7R5, read-out: Efficacy (Emax, %)",113%
same,EC50,5-HT2a; [6],1490 nM
same,Emax,5-HT2a; [5],26.9%
"COc1cc([C@H](O)[C@@H](C)N)c(OC)c2ccccc12 [Example 3, (1S,2R)-2-Amino-1-(1,4-dimethoxy-naphthalen-2-yl)-propan-1-ol hydrochloride]",EC50,5-HT2a; [6],1410 nM
same,Emax,5-HT2a; [5],28.4%
"COc1c(CC(C)N)ccc2ccccc12 (centres unmarked) [Example 4, 2-(1-Methoxy-naphthalen-2-yl)-1-methylethylamine hydrochloride]",EC50,5-HT2a,580 nM
same,Emax,5-HT2a; [5],28.9%
"COc1c(CC(C)N)cc(Br)c2ccccc12 (centres unmarked) [Example 5, 2-(4-Bromo-1-methoxy-naphthalen-2-yl)-1-methylethylamine hydrochloride]",EC50,5-HT2a,1120 nM
same,Emax,5-HT2a; [5],38.9%
"CC(N)Cc1ccc2ccccc2c1O (centres unmarked) [Example 7, 2-(1-hydroxy-naphthalen-2-yl)-1-methylethylamine hydrochloride]",Emax,5-HT2a; [5],17.3%
"COc1ccc(OC)c2cc(CC(C)N)ccc12 (centres unmarked) [Example 8, 2-(5,8-dimethoxy-naphthalen-2-yl)-1-methylethylamine hydrochloride]",Emax,5-HT2a; [5],2.6%
"CCCN(CCC)C1CCc2cccc(O)c2C1 (centres unmarked) [Example 8-OH-DPAT, 8-hydroxydipropylaminotetralin]",effect on IOP,[4],reduces IOP
"COc1cc(C(=O)C(C)N)c(OC)c2ccccc12 (centres unmarked) [Example 9, 2-amino-1-(1,4-dimethoxy-naphthalen-2-yl)-propan-1-one hydrochloride]",Emax,5-HT2a; [5],21.8%
"CC(N)Cc1ccc2ccccc2c1 (centres unmarked) [Example 10, 2-(naphthalen-2-yl)-1-methylethylamine hydrochloride]",Emax,5-HT2a; [5],20.4%
"COc1cc(CC(C)N)cc2ccccc12 (centres unmarked) [Example 11, 2-(4-methoxy-naphthalen-2-yl)-1-methylethylamine hydrochloride]",EC50,5-HT2a,612 nM
same,Emax,5-HT2a; [5],46.4%
"COc1cc(CC(C)N)c(Br)c2ccccc12 (centres unmarked) [Example 12, 2-(1-Bromo-4-methoxy-naphthalen-2-yl)-1-methylethylamine hydrochloride]",EC50,5-HT2a,911 nM
same,Emax,5-HT2a; [5],37.4%
